According to patent US20250136606A1, “MODULATORS OF TRPML, THEIR COMPOSITIONS AND METHODS OF USE” (Caraway Therapeutics, Inc., priority 2021, published 2025):
Where two headings read alike, the source gives them in different places.

Experiments:
Format in all cases: cell-based
[1] = biological target: TRPML1 (Homo sapiens, UniProt Q9GZU1); assay: Fluorescent TRPML1 assay (Fluo4-AM calcium fluorescence in doxycycline-induced HEK-293 Trex cells)
Outline: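 First, expression of surface-targeted mutant human TRPML1 is induced in HEK-293 Trex cells with 0.5 ug/mL doxycycline the day before. Next, cells take up 1 micromolar Fluo4-AM in Ringer's with 0.1% Pluronic. Finally, they are added to compounds (6 nanomolar–20 micromolar final) in 10 mM calcium Ringer's and fluorescence is read.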

[2] = biological target: T1, TRPML3 (Homo sapiens, UniProt Q8TDD5); assay: Fluorescent TRPML3 assay (performed as for TRPML1, substituting the TRPML3 subtype)
T1 construct: expressed in transfected cells
T1 sequence (Q8TDD5 1-553): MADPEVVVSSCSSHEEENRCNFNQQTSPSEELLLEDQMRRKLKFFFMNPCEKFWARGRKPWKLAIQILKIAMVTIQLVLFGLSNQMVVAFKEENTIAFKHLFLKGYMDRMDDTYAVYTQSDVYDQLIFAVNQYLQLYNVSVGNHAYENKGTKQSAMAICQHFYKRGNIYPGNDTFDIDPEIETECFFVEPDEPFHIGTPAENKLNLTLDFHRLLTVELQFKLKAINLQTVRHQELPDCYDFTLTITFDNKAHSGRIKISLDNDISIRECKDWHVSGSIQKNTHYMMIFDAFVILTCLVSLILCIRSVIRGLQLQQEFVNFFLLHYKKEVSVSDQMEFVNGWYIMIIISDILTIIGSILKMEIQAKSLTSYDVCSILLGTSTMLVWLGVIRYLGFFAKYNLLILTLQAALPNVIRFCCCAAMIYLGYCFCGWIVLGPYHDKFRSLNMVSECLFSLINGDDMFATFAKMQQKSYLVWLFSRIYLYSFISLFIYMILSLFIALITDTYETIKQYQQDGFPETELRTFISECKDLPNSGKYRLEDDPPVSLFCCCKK
Outline: (§1)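 Doxycycline-induced (0.5 ug/mL) HEK-293 Trex cells stably expressing surface-directed mutant channel were loaded with 1 micromolar Fluo4-AM, resuspended in Ringer's with 10 mM calcium and added to compound plates. Fluorescence (ex 480, em 540 nm) gave percent activity versus on-plate controls; EC50 by non-linear regression.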

[3] = biological target: T2, TRPML2 (Homo sapiens, UniProt Q8IZK6); assay: Fluorescent TRPML2 assay (performed as for TRPML1, substituting the TRPML2 subtype)
T2 construct: expressed in transfected cells
T2 sequence (Q8IZK6 1-566): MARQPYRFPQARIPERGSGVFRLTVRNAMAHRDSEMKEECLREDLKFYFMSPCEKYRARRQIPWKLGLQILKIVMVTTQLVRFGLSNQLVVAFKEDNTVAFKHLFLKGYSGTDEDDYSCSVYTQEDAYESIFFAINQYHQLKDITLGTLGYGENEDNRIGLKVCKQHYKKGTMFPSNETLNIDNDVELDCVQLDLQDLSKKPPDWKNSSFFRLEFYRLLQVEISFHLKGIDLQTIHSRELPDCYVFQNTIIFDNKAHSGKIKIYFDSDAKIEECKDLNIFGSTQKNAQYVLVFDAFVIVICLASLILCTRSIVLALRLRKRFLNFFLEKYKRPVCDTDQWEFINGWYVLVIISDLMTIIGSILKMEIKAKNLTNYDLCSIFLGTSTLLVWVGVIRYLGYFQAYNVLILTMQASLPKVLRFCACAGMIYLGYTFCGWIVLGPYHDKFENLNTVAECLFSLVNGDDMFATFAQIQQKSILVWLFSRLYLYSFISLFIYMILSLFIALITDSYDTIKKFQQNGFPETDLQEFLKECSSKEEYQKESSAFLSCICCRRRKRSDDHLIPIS
Outline: as §1

Sequence of TRPML1 (Q9GZU1 whole entry L15A/L16A/L577A/L578A, form open): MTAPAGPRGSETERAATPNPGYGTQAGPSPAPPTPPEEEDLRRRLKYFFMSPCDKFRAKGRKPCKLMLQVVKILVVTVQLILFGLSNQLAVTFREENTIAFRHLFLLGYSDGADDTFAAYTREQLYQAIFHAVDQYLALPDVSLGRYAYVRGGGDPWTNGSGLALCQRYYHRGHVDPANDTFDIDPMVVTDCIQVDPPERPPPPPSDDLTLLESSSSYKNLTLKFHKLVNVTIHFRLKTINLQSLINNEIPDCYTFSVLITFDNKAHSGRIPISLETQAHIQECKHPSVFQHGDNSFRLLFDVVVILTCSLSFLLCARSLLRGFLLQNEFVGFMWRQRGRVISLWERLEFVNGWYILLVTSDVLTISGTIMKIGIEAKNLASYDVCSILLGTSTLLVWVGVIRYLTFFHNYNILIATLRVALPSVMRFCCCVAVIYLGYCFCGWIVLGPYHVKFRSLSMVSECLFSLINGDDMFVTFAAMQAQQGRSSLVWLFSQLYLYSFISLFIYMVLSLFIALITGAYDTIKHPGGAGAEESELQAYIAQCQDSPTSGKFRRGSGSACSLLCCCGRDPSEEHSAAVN

SMILES | EC50 ([1]; fluorescent calcium assay) | EC50 ([2]; fluorescent calcium assay) | EC50 ([3]; fluorescent calcium assay) | EC50 [1] | EC50 [2] | EC50 [3]
C[C@H]1CN(C(=O)OC(C)(C)C)CCN1c1ncnc2c1c(-c1ccccc1)cn2-c1cnn(C)c1 [Compound 170, tert-butyl (S)-3-methyl-4-(7-(1-methyl-1H-pyrazol-4-yl)-5-phenyl-7H-pyrrolo[2,3-d]pyrimidin-4-yl)piperazine-1-carboxylate] | 100 to 500 nM | < 100 nM | 500 to 2000 nM | – | – | –
C[C@H]1CN(C(=O)OC(C)(C)C(F)(F)F)CCN1c1ncnc2c1c(-c1ccccn1)cn2-c1cccc(Cl)c1 [Compound 121, 1,1,1-trifluoro-2-methylpropan-2-yl (S)-4-(7-(3-chlorophenyl)-5-(pyridin-2-yl)-7H-pyrrolo[2,3-d]pyrimidin-4-yl)-3-methylpiperazine-1-carboxylate] | < 100 nM | < 100 nM | 100 to 500 nM | – | – | –
Cc1nccnc1-c1cn(-c2cc(C#N)ccn2)c2ncnc(N3C[C@@H](C)N(C(=O)OC(C)(C)C)C[C@@H]3C)c12 [Compound 458, tert-butyl (2R,5S)-4-(7-(4-cyanopyridin-2-yl)-5-(3-methylpyrazin-2-yl)-7H-pyrrolo[2,3-d]pyrimidin-4-yl)-2,5-dimethylpiperazine-1-carboxylate] | < 100 nM | 100 to 500 nM | 100 to 500 nM | – | – | –
C[C@@H]1CN(c2ncnc3c2c(-c2ccccc2F)cn3-c2cc(C#N)ccn2)[C@@H](C)CN1C(=O)OC(C)(C)C [Compound 390] | < 100 nM | < 100 nM | < 100 nM | – | – | –
Cc1cn(-c2cc(F)cc(Cl)c2)c2ncnc(N3CCN(C(=O)OC(C)(C)C)C[C@@H]3C)c12 [Compound 693, tert-butyl (S)-4-(7-(3-chloro-5-fluorophenyl)-5-methyl-7H-pyrrolo[2,3-d]pyrimidin-4-yl)-3-methylpiperazine-1-carboxylate] | – | – | – | < 100 nM | < 100 nM | 100 to 500 nM
Cc1cc(C#N)cc(-n2cc(-c3ccccc3F)c3c(N4CCN(C(=O)OC(C)(C)C)C[C@@H]4C)ncnc32)n1 [Compound 404, tert-butyl (S)-4-(7-(4-cyano-6-methylpyridin-2-yl)-5-(2-fluorophenyl)-7H-pyrrolo[2,3-d]pyrimidin-4-yl)-3-methylpiperazine-1-carboxylate] | < 100 nM | < 100 nM | < 100 nM | – | – | –
C[C@@H]1CN(C(=O)OC(C)(C)C)CCN1c1ncnc2c1c(C1CCCC1)cn2-c1cccc(Cl)c1 [Compound 157, tert-butyl (R)-4-(7-(3-chlorophenyl)-5-cyclopentyl-7H-pyrrolo[2,3-d]pyrimidin-4-yl)-3-methylpiperazine-1-carboxylate] | 100 to 500 nM | < 100 nM | 100 to 500 nM | – | – | –
CC(C)(C)OC(=O)N1CCN(c2ncnc3c2c(C(F)F)cn3-c2cc(C#N)ccn2)CC1 [Compound 609, tert-buty1 4-(7-(4-cyanopyridin-2-yl)-5-(difluoromethyl)-7H-pyrrolo[2,3-d]pyrimidin-4-yl)piperazine-1-carboxylate] | – | – | – | < 100 nM | < 100 nM | 500 to 2000 nM
C[C@@H]1CN(c2ncnc3c2c(C(F)(F)F)cn3-c2cc(C#N)ncn2)[C@@H](C)CN1C(=O)OC(C)(C)C [Compound 509, tert-butyl (2R,5S)-4-(7-(6-cyanopyrimidin-4-yl)-5-(trifluoromethyl)-7H-pyrrolo[2,3-d]pyrimidin-4-yl)-2,5-dimethylpiperazine-1-carboxylate] | – | – | – | < 100 nM | < 100 nM | < 100 nM
CCC(CC)OC(=O)N1C[C@H](C)N(c2ncnc3c2c(C(F)(F)F)cn3-c2cc(C#N)ccn2)C[C@H]1C [Compound 512, pentan-3-yl (2R,5S)-4-(7-(4-cyanopyridin-2-yl)-5-(trifluoromethyl)-7H-pyrrolo[2,3-d]pyrimidin-4-yl)-2,5-dimethylpiperazine-1-carboxylate] | – | – | – | < 100 nM | < 100 nM | 100 to 500 nM
C[C@H]1CN(C(=O)OC(C)(C)C)CCN1c1ncnc2c1c(C1CC1)cn2-c1cccc(OC(F)(F)F)c1 [Compound 196, tert-butyl (S)-4-(5-cyclopropyl-7-(3-(trifluoromethoxy)phenyl)-7H-pyrrolo[2,3-d]pyrimidin-4-yl)-3-methylpiperazine-1-carboxylate] | < 100 nM | < 100 nM | 100 to 500 nM | – | – | –
C[C@@H]1CN(c2ncnc3c2c(-c2ccccc2F)cn3-c2ccccn2)CCN1C(=O)OC(C)(C)C [Compound 192, tert-butyl (R)-4-(5-(2-fluorophenyl)-7-(pyridin-2-yl)-7H-pyrrolo[2,3-d]pyrimidin-4-yl)-2-methylpiperazine-1-carboxylate] | < 100 nM | < 100 nM | 100 to 500 nM | – | – | –
CC1CN(C(=O)OC(C)(C)C)CCN1c1nccc2c1c(-c1ccccn1)cn2-c1cccc(Cl)c1 (stereo not drawn) [Compound 187, tert-butyl 4-(1-(3-chlorophenyl)-3-(pyridin-2-yl)-1H-pyrrolo[3,2-c]pyridin-4-yl)-3-methylpiperazine-1-carboxylate] | 100 to 500 nM | 100 to 500 nM | 100 to 500 nM | – | – | –
Cc1nccnc1-c1cn(-c2ccc(Cl)cc2)c2ncnc(N3C[C@@H](C)N(C(=O)OC(C)(C)C)C[C@@H]3C)c12 [Compound 184, tert-butyl (2R,5S)-4-(7-(4-chlorophenyl)-5-(3-methylpyrazin-2-yl)-7H-pyrrolo[2,3-d]pyrimidin-4-yl)-2,5-dimethylpiperazine-1-carboxylate] | 100 to 500 nM | 100 to 500 nM | 500 to 2000 nM | – | – | –
Cc1ccc(Cl)cc1-n1cc(-c2cnccn2)c2c(N3CCN(C(=O)OC(C)(C)C)CC3C)ncnc21 (stereo not drawn) [Compound 163, tert-butyl 4-(7-(5-chloro-2-methylphenyl)-5-(pyrazin-2-yl)-7H-pyrrolo[2,3-d]pyrimidin-4-yl)-3-methylpiperazine-1-carboxylate] | 500 to 2000 nM | 100 to 500 nM | 500 to 2000 nM | – | – | –
C[C@@H]1CN(c2ncnc3c2c(-c2cnccn2)cn3-c2cccc(Cl)c2)[C@@H](C)CN1C(=O)OC(C)(C)C [Compound 124, tert-butyl (2R,5S)-4-(7-(3-chlorophenyl)-5-(pyrazin-2-yl)-7H-pyrrolo[2,3-d]pyrimidin-4-yl)-2,5-dimethylpiperazine-1-carboxylate] | < 100 nM | 100 to 500 nM | 500 to 2000 nM | – | – | –
CC(C)(C)OC(=O)N1CCN(c2ncnc3c2c(C2CC2)cn3-c2cc(F)cc(F)c2)C[C@H]1C(F)F (single isomer, unassigned) [Compound 314] | 500 to 2000 nM | 500 to 2000 nM | > 2000 nM | – | – | –
C[C@@H]1CN(c2ncnc3c2c(C2CC2)cn3-c2cc(C#N)ccn2)CCN1C(=O)OCC(F)(F)F [Compound 377, 2,2,2-trifluoroethyl (R)-4-(7-(4-cyanopyridin-2-yl)-5-cyclopropyl-7H-pyrrolo[2,3-d]pyrimidin-4-yl)-2-methylpiperazine-1-carboxylate] | < 100 nM | < 100 nM | 100 to 500 nM | – | – | –
C[C@@H]1CN(C(=O)OC(C)(C)C)CCN1c1ncnc2c1c(N1CCCC1)cn2-c1cc(F)cc(F)c1 [Compound 255, tert-butyl (R)-4-(7-(3,5-difluorophenyl)-5-(pyrrolidin-1-yl)-7H-pyrrolo[2,3-d]pyrimidin-4-yl)-3-methylpiperazine-1-carboxylate] | 100 to 500 nM | 100 to 500 nM | 500 to 2000 nM | – | – | –
C[C@H]1CN(C(=O)OC(C)(C)C)CCN1c1ncnc2c1c(C1CC1)cn2-c1cc(F)cc(F)c1 [Compound 203, tert-butyl (S)-4-(5-cyclopropyl-7-(3,5-difluorophenyl)-7H-pyrrolo[2,3-d]pyrimidin-4-yl)-3-methylpiperazine-1-carboxylate] | < 100 nM | < 100 nM | 100 to 500 nM | – | – | –
Cc1cn(-c2ccccn2)c2ncnc(N3C[C@@H](C)N(C(=O)OC(C)(C)C)C[C@@H]3C)c12 [Compound 673, tert-butyl (2R,5S)-2,5-dimethyl-4-(5-methyl-7-(pyridin-2-yl)-7H-pyrrolo[2,3-d]pyrimidin-4-yl)piperazine-1-carboxylate] | – | – | – | 100 to 500 nM | 100 to 500 nM | > 2000 nM
